Experimental data as given in PubChem BioAssay AID623883 (Johns Hopkins Ion Channel Center, 2012).
The source made the active and inactive calls.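 How the source made its calls: active means peak hERG inhibition over 30% at some tested dose, together with a fitted dose response curve; inactive means no hERG inhibition at any dose, or no curve fitted.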

Target: Voltage-gated inwardly rectifying potassium channel KCNH2 (Homo sapiens) (UniProt Q12809)
Test: block of human KCNH2 potassium channel – cell-based, FluxOR thallium flux, concentration-response, set 4, selectivity assay for KCNK9 inhibitor project, SAR follow-up (AID 623883)
Conditions: hERG-expressing cells, FluxOR thallium flux fluorescence

Sequence of Voltage-gated inwardly rectifying potassium channel KCNH2 (Homo sapiens) (Q12809 whole entry, looked up): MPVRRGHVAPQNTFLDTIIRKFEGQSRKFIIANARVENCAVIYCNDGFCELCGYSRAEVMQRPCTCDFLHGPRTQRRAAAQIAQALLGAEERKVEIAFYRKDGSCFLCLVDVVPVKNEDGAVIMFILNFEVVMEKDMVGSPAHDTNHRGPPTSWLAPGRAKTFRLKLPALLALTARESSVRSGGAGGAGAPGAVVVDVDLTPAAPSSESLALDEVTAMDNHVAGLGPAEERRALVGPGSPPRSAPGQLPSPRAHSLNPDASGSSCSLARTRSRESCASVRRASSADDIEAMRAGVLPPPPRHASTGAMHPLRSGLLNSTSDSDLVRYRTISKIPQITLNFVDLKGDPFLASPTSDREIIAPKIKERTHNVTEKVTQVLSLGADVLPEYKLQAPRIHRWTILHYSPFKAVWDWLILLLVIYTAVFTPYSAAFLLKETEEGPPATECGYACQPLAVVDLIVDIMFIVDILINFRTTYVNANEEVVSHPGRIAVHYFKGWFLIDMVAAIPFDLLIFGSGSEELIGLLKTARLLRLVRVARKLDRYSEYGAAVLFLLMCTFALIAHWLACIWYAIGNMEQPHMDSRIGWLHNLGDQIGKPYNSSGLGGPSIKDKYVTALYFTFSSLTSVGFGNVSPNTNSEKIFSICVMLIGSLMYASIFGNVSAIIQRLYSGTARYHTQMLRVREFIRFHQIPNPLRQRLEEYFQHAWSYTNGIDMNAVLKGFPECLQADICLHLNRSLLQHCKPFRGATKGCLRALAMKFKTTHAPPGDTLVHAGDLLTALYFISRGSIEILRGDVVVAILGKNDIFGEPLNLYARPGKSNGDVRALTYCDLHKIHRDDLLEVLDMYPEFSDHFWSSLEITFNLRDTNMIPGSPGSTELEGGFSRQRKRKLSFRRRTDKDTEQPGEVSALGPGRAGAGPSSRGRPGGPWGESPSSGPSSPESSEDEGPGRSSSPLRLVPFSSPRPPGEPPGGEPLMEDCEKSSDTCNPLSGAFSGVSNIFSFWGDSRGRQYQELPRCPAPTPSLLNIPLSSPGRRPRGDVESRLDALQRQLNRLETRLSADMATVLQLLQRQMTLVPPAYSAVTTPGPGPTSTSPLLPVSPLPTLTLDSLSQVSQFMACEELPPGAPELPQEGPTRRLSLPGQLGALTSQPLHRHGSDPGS

| Compound | IC50 |
| --- | --- |
| CCCC(=O)C1CCN(c2ncnc3c2CN(C(=O)c2ccc(-c4ccccc4)cc2)CC3)CC1 | 7.68 µM |
| CC(C1CC2CCC1C2)n1c(SCCc2cccc(O)c2)nnc1-c1ccco1 (stereo not given) | 8.05 µM |
| COc1cccc(-c2nnc(SSc3nnc(-c4cccc(OC)c4)n3C(C)C3CC4CCC3C4)n2C(C)C2CC3CCC2C3)c1 (stereo not given) | 0.398 µM |
| COc1cccc(CCSc2nnc(-c3ccco3)n2C(C)C2CC3CCC2C3)c1 (stereo not given) | 4.52 µM |
| COc1ccc(C(=O)CCSc2nnc(-c3ccco3)n2C(C)C2CC3CCC2C3)cc1OC (stereo not given) | 15.8 µM |
| CC(C1CC2CCC1C2)n1c(SCCc2ccccn2)nnc1-c1ccco1 (stereo not given) | 12.6 µM |
| COc1ccc(NC(=O)CSc2nnc(-c3ccco3)n2C(C)C2CC3CCC2C3)cc1OC (stereo not given) | 25.8 µM |
| C[C@H]([C@@H]1CC2CC[C@H]1C2)n1c(-c2ccsc2)n[nH]c1=S | 0.839 µM |
| COc1ccc(CSc2nnc(-c3ccco3)n2C(C)C2CC3CCC2C3)cc1OC (stereo not given) | 18.2 µM |

Same assay, conditions: hERG-expressing cells, at 30 µM (top of the series)

| Compound | fluorescence ratio, lower = inhibition |
| --- | --- |
| C[C@H](C1CCCCC1)n1c(-c2ccccc2F)n[nH]c1=S | inactive |
| CC(C1CC2CCC1C2)n1c(-c2ccco2)nn(CCc2ccncc2)c1=S (stereo not given) | inactive |
| CC(C1CCN(C)CC1)n1c(-c2ccco2)n[nH]c1=S (stereo not given) | inactive |
| C[C@@H]([C@@H]1CC2CC[C@H]1C2)n1c(-c2ccco2)n[nH]c1=S | inactive |
| C[C@H](C1CCCCC1)n1c(-c2ccsc2)n[nH]c1=S | inactive |
| CC([C@@H]1CC2CC[C@H]1C2)n1c(-c2ccsc2)n[nH]c1=S (stereo not given in full) | inactive |
| CC(C1CC2CCC1C2)n1c(SCC(=O)N2CCN(C)CC2)nnc1-c1ccco1 (stereo not given) | inactive |
| COc1cccc(-c2n[nH]c(=S)n2[C@H](C)C2CCCCC2)c1 | inactive |
| CC(C1CC2CCC1C2)n1c(SCCN2CCOCC2)nnc1-c1ccco1 (stereo not given) | inactive |
| CC(C1C[C@H]2CCC1C2)n1c(-c2ccsc2)n[nH]c1=S (stereo not given in full) | inactive |
| C[C@H]([C@@H]1CC2CC[C@H]1C2)n1c(-c2ccsc2)n[nH]c1=S | inactive |
| C[C@H]([C@@H]1CC2CC[C@H]1C2)n1c(-c2ccccc2F)n[nH]c1=S | inactive |
| COc1cccc(-c2n[nH]c(=S)n2[C@H](C)[C@@H]2CC3CC[C@H]2C3)c1 | inactive |
| C[C@H]([C@@H]1CC2CC[C@H]1C2)n1c(-c2ccco2)n[nH]c1=S | inactive |
| C[C@@H]([C@@H]1CC2CC[C@H]1C2)n1c(-c2ccsc2)n[nH]c1=S | inactive |
| CC(C1CC2CCC1C2)n1c(N)nnc1-c1ccco1 (stereo not given) | inactive |
